Laboratory results as given in patent US20120122860A1, “SOLID FORMS OF SULFONAMIDES AND AMINO ACIDS” (Plexxikon, Inc., priority 2009, published 2012).
pIC50: −log10 of the molar value.

Experiments:
Btk = Btk (Homo sapiens, UniProt Q06187); assay: Kinase activity assay, Btk
Fms = Fms (Homo sapiens, UniProt P07333); assay: Kinase activity assay, Fms
Kdr = Kdr (Homo sapiens, UniProt P35968); assay: Kinase activity assay, Kdr
Kit = Kit (Homo sapiens, UniProt P10721); assay: Kinase activity assay, Kit
Src = Src (Homo sapiens, UniProt P12931); assay: Kinase activity assay, Src
TEC = molecular target: T1, TEC (Homo sapiens, UniProt P42680); assay: Kinase activity assay, TEC
T1 sequence (P42680 1-631): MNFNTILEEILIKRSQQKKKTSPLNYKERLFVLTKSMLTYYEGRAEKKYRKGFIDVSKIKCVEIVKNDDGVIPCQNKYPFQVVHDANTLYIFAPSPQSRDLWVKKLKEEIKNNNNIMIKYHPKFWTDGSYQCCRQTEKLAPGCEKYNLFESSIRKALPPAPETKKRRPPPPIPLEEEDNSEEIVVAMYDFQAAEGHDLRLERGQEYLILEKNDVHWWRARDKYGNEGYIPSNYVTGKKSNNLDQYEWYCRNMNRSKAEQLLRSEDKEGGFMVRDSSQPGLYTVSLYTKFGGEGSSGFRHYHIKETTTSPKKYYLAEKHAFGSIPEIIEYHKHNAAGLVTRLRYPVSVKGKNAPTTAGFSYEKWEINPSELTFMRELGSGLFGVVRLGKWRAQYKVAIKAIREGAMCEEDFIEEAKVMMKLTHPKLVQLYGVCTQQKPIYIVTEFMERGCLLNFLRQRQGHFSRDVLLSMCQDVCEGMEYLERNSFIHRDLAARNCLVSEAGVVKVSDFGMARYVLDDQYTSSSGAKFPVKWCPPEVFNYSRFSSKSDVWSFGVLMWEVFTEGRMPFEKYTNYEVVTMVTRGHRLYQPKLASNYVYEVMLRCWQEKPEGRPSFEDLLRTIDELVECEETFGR

MAP4K4 = MAP4K4 (Homo sapiens, UniProt O95819); assay: Kinase activity assay, MAP4K4
B-Raf = B-Raf (Homo sapiens, UniProt P15056); assay: Kinase activity assay, B-Raf; type: biochemical; details: read-out: activity toward kinase B-Raf, IC50
B-Raf V600E = B-Raf V600E (Homo sapiens, UniProt P15056, V600E); assay: Kinase activity assay, B-Raf V600E; type: biochemical; details: read-out: activity toward kinase B-Raf V600E, IC50
C-Raf = C-Raf (Homo sapiens, UniProt P04049); assay: Kinase activity assay, C-Raf

Measured: pIC50

Sequence of B-Raf (P15056 whole entry): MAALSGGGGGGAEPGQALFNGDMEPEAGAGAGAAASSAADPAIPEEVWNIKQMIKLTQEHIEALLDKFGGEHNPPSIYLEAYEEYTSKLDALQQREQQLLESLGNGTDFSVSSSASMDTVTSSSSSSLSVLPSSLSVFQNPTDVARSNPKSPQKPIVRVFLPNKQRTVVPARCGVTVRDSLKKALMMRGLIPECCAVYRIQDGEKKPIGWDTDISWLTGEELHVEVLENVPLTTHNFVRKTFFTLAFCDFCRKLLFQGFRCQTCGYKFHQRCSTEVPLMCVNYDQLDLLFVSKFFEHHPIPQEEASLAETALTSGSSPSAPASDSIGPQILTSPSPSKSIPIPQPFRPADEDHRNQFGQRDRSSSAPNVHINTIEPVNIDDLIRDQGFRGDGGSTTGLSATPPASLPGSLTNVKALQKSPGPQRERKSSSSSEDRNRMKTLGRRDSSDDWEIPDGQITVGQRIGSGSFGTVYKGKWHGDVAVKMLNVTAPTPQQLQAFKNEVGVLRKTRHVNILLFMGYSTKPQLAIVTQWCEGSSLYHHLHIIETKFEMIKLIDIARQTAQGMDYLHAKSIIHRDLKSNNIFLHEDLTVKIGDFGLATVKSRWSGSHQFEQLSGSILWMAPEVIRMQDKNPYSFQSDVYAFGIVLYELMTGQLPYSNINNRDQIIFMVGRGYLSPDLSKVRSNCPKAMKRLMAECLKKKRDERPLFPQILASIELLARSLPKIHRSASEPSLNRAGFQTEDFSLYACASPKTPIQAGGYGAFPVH
Sequence of Kit (P10721 26-976): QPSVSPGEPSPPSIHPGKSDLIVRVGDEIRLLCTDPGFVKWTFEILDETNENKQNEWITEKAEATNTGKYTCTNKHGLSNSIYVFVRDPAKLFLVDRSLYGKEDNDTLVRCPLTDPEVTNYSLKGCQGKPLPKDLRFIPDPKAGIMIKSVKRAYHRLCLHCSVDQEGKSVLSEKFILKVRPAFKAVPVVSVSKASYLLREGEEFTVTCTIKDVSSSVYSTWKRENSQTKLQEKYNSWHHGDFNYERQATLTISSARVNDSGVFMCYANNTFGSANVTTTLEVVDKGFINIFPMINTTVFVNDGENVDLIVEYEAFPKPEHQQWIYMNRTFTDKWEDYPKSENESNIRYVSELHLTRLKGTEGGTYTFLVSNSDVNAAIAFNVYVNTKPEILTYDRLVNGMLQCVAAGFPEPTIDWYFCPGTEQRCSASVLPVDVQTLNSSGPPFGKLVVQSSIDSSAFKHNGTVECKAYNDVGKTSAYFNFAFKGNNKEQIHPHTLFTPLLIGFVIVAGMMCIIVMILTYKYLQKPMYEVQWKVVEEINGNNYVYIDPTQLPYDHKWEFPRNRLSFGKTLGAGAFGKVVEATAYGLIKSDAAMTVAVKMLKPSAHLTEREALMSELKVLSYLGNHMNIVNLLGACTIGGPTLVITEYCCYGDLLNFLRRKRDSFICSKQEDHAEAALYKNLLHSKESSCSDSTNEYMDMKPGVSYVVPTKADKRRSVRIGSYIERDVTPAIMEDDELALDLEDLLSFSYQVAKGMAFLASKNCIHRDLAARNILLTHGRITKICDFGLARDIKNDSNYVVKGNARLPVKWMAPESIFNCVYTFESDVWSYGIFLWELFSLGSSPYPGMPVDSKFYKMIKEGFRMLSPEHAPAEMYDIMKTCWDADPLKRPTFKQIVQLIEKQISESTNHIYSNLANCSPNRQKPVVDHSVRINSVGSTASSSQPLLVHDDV
Sequence of B-Raf V600E (P15056 whole entry V600E): as the sequence (P15056 whole entry) above, with V600E counted along it
Sequence of Btk (Q06187 whole entry): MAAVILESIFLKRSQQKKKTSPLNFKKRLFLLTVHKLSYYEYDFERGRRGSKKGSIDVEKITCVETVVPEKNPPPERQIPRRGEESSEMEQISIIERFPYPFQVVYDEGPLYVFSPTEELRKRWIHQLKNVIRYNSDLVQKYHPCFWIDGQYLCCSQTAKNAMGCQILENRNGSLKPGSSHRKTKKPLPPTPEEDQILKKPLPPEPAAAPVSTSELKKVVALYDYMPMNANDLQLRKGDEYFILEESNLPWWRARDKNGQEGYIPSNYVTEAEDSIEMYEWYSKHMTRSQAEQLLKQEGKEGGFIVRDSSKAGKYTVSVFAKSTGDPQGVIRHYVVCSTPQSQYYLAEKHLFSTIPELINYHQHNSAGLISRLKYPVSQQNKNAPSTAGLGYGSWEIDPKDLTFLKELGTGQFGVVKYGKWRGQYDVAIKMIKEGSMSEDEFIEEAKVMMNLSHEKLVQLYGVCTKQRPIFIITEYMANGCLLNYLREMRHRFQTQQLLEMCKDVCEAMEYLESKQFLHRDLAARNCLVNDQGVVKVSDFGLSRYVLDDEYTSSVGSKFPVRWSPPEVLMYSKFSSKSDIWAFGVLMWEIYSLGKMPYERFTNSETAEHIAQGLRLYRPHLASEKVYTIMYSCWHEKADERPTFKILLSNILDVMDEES
Sequence of MAP4K4 (O95819 whole entry): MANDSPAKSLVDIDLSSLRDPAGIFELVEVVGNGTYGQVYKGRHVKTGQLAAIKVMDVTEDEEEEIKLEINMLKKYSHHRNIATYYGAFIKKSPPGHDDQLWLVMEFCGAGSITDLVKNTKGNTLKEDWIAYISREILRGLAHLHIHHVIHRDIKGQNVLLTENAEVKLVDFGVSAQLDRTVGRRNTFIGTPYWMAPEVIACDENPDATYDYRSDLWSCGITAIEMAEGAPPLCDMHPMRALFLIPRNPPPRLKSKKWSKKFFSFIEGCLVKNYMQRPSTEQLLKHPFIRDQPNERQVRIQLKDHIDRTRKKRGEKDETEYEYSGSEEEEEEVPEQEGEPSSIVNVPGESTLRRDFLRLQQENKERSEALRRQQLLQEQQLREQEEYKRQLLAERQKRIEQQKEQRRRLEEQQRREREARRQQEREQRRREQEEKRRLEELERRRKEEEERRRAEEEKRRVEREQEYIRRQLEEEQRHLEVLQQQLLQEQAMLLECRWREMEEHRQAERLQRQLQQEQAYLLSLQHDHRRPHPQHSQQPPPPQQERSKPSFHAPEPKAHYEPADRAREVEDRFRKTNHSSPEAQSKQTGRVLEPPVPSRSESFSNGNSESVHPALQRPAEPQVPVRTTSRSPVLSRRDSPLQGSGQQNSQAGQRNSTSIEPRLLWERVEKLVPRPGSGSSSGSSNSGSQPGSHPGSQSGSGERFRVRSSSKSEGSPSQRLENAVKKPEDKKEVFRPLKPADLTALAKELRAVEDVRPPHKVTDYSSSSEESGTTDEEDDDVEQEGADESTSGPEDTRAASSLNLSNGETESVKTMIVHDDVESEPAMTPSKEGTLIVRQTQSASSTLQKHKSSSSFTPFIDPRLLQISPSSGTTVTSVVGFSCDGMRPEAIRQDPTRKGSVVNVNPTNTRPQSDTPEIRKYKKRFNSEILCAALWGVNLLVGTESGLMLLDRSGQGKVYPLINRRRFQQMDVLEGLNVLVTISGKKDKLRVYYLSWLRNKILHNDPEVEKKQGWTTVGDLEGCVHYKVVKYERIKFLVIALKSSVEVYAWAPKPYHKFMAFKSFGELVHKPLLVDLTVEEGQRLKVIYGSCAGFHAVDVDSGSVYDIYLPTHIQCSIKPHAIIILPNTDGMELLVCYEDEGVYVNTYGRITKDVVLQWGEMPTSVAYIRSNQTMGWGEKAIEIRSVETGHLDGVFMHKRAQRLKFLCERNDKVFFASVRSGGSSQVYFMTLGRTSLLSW
Sequence of Fms (P07333 20-972): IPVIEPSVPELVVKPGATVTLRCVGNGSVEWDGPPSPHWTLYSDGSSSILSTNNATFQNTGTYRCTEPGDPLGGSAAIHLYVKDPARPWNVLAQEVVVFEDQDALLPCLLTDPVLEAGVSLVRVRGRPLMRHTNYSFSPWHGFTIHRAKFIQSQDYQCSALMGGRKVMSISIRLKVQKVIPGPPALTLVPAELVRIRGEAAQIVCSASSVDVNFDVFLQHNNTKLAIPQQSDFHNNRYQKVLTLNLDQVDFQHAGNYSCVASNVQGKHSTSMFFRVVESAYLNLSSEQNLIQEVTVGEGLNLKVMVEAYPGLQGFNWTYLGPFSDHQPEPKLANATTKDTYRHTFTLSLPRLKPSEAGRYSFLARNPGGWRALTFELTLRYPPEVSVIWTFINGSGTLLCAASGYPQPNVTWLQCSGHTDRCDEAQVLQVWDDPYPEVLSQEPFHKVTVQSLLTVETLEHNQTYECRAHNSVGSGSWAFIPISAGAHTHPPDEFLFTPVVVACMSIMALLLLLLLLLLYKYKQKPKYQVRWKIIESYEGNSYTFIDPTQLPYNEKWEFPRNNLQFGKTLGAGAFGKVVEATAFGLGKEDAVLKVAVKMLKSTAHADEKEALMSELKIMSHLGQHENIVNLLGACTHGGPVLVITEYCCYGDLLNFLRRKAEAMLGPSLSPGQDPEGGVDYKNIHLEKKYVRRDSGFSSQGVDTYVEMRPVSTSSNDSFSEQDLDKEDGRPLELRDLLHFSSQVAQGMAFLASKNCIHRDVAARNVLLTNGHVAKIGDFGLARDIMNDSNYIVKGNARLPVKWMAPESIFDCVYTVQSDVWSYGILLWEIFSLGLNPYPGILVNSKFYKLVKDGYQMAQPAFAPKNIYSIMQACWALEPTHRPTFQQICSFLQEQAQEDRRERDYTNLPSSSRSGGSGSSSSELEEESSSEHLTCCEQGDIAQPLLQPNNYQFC

CS(=O)(=O)c1cccc(-c2cnc3[nH]cc(C(=O)c4cc(NS(=O)(=O)c5cccnc5)ccc4F)c3c2)c1 [P-2138, Pyridine-3-sulfonic acid {4-fluoro-3-[5-(3-methanesulfonyl-phenyl)-1H-pyrrolo[2,3-b]pyridine-3-carbonyl]-phenyl}-amide]
not listed: B-Raf | B-Raf V600E | C-Raf
≥ 5.00: all other assays above

COc1cnc2[nH]cc(C(=O)c3cccc(NS(=O)(=O)c4cccnc4)c3)c2c1 [P-2142, Pyridine-3-sulfonic acid [3-(5-methoxy-1H-pyrrolo[2,3-b]pyridine-3-carbonyl)-phenyl]-amide]
not listed: B-Raf V600E | C-Raf
≥ 5.00: all other assays above

CCS(=O)(=O)Nc1ccc(F)c(C(=O)c2c[nH]c3ncc(-c4cnn(C)c4)cc23)c1F [P-2271, Ethanesulfonic acid {2,4-difluoro-3-[5-(1-methyl-1H-pyrazol-4-yl)-1H-pyrrolo[2,3-b]pyridine-3-carbonyl]-phenyl}-amide]
not listed: MAP4K4 | C-Raf
≥ 5.00: all other assays above

CCC(C)S(=O)(=O)Nc1ccc(F)c(C(=O)c2c[nH]c3ncc(OC)cc23)c1F (centres unmarked) [P-2308, Butane-2-sulfonic acid [2,4-difluoro-3-(5-methoxy-1H-pyrrolo[2,3-b]pyridine-3-carbonyl)-phenyl]-amide]
not listed: Fms | Kit | B-Raf
≥ 5.00: all other assays above

Cn1cc(-c2cnc3[nH]cc(C(=O)c4c(F)ccc(NS(=O)(=O)C5CC5)c4F)c3c2)cn1 [P-2352, Cyclopropanesulfonic acid {2,4-difluoro-3-[5-(1-methyl-1H-pyrazol-4-yl)-1H-pyrrolo[2,3-b]pyridine-3-carbonyl]-phenyl}-amide]
not listed: MAP4K4 | C-Raf
≥ 5.00: all other assays above

Cc1cnc2[nH]cc(C(=O)c3cc(NS(=O)(=O)C4CCCC4)ccc3F)c2c1 [P-2448, Cyclopentanesulfonic acid [4-fluoro-3-(5-methyl-1H-pyrrolo[2,3-b]pyridine-3-carbonyl)-phenyl]-amide]
not listed: B-Raf | B-Raf V600E | C-Raf
≥ 5.00: all other assays above

COc1cnc2[nH]cc(C(=O)c3cccc(NS(=O)(=O)C4CCCCC4)c3)c2c1 [P-2460, Cyclohexanesulfonic acid [3-(5-methoxy-1H-pyrrolo[2,3-b]pyridine-3-carbonyl)-phenyl]-amide]
not listed: B-Raf | B-Raf V600E | C-Raf
≥ 5.00: all other assays above

CS(=O)(=O)c1cccc(-c2cnc3[nH]cc(C(=O)c4cccc(NS(=O)(=O)C5CCCCC5)c4)c3c2)c1 [P-2461, Cyclohexanesulfonic acid {3-[5-(3-methanesulfonyl-phenyl)-1H-pyrrolo[2,3-b]pyridine-3-carbonyl]-phenyl}-amide]
≥ 5.00: Btk | Fms | Kdr | Kit | TEC | MAP4K4

COc1cnc2[nH]cc(C(=O)c3cccc(NS(=O)(=O)C4CCCC4)c3)c2c1 [P-2464, Cyclopentanesulfonic acid [3-(5-methoxy-1H-pyrrolo[2,3-b]pyridine-3-carbonyl)-phenyl]-amide]
not listed: Src | B-Raf | C-Raf
≥ 5.00: all other assays above
